Data from patent publication US5705491A, “Adenosine deaminase inhibitor” (Nippon Zoki Pharmaceutical Co., Ltd., priority 1992, dated 1998).

Legend:
[1] = molecular target: T1, adenosine deaminase of type VII (mucous membrane of intestinal tract of calf) (Bos taurus, UniProt P56658); experiment: Adenosine deaminase inhibiting action; assay type: biochemical; settings: 25° C., 0.05M phosphate buffer pH 7.5, adenosine substrate, 5 minutes, Lineweaver-Burk plots
T1 construct: from tissue; host or cells: mucous membrane of intestinal tract of calf
T1 sequence (P56658 1-363): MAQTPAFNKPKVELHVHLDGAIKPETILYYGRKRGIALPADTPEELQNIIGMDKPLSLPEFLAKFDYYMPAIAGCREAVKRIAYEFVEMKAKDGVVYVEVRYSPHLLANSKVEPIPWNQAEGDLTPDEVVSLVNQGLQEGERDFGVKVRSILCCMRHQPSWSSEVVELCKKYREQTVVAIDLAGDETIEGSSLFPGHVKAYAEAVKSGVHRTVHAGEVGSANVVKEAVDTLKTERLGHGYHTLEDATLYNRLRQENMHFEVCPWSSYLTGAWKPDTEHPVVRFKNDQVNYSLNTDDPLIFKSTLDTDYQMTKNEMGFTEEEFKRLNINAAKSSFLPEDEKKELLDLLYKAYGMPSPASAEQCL
Experimental: 1. Adenosine Deaminase Inhibiting Action
The enzymatic reaction was conducted at 25° C. in a 0.05M phosphate buffer (pH=7.5). Thus, a reaction solution comprising 800 μl of substrate solution (adenosine), 100 μl of a solution to be tested and 100 μl of enzyme solution (adenosine deaminase of type VII; mucous membrane of intestinal tract of calf) was reacted for 5 minutes and the reaction was stopped by adding 100 μl of acetic acid. Then the amount of inosine produced was determined by means of an HPLC to measure the inhibiting activity. The test was conducted for various substrate concentrations and Ki values were measured by Lineweaver-Burk plots.

[2] = tested on: rats administered with puromycin aminonucleoside (nephritis model); experiment: Therapeutic action to nephritis (puromycin aminonucleoside rats); assay type: in vivo, male rat (SD strain); settings: 50 mg/kg oral, five consecutive days
Experimental: 2. Therapeutic Action to Nephritis.
When puromycin aminonucleoside is administered to rats, symptoms similar to protein-rich urine, hypoproteinemia, hyperlipemia, nephrotic syndrome, etc, result and, therefore, rats which are administered with puromycin aminonucleoside have been used as pathological model animals for nephritis. The chemical name for puromycin aminonucleoside is 3'-amino-3'-deoxy-N,N-dimethyladenosine. A method by Endo, et al. [Sogo Rinsho, vol. 38, no. 5, page 821 (1989)] was somewhat modified and used as a test method here. Thus, a solution of puromycin aminonucleoside was dissolved in a physiological saline liquid and administered just once to a tail vein of a male rat (SD strain) of about 200 g body weight at a dose of 100 mg/kg (the initial of zero-th day).
The compound to be tested was dissolved in a physiological saline liquid and was given orally for five consecutive days from the zero-th day at a dose of 50 mg/kg each. After 24 hours, the accumulated urine was collected and the amount of urine and the amount of protein in the urine was measured. Blood was collected on the tenth day and the total protein in serum, creatinine in serum and urea nitrogen were measured.
Examples of the results are given in Tables 2 and where the control is those animals injected only with the puromycin aminonucleoside: […]

[3] = tested on: Human peripheral polymorphonuclear leukocyte (PML); experiment: Inhibitory action against activated oxygen (superoxide) generation; assay type: cell-based; settings: FMLP 10^-7 M; for inhibition at 100 µM: 1 × 10^-4 M; for inhibition at 10 µM: 1 × 10^-5 M; for inhibition at 1 µM: 1 × 10^-6 M
Experimental: 3. Inhibitory Action against Activated Oxygen Generation
Human peripheral polymorphonuclear leukocyte (PML, 2×10^6 cells) prepared in a conventional method, bovine heart cytochrome C type-III (75 nmol), cytocharasin (5 μg) and tested drug were mixed with HEPES-buffered saline solution (final 1 ml) and incubated for 5 minutes at 37° C. N-Formyl-methionyl-leucyl-phenylalanine (FMLP) was added (final 10^-7 M) and incubated for 5 minutes. Immediately after the incubation, the reaction mixture was centrifuged at 4° C., and then the absorbance at 550 nm of the supernatant was measured with a spectrophotometer.
An excess amount of bovine liver superoxide dismutase (SOD) was added to the reaction mixture and the absorbance of the supernatant was also measured in the same manner as above as a blank value.
A portion of adenosine deaminase (ADA) may be removed during the preparation of human peripheral PML. Therefore, the inhibitory action against the generation of superoxide of the tested drug was measured in the same manner as mentioned above, adding 0.02 units of bovine liver ADA with human peripheral PML.
The inhibition against superoxide generation was calculated by the following equation, and examples of the results are given in Table 4. [formula]

[4] = tested on: ischemic edema of hind paw of mice; experiment: Suppressive action against ischemic edema; assay type: in vivo, ICR-strain male mice
Experimental: 4. Suppressive Action against Ischemic Edema
The right hind paw of ICR-strain male mice (11 weeks of age) were fastened with a rubber band to stop the blood stream for 20 minutes, and then the rubber band was removed to recover the blood stream. The tested drug was administered intravenously before the treatment. Each of the right and left hind paws were weighed and the suppressive action was measured according to the weight difference between the treated and untreated paws.

[5] = with ADA (0.02 units bovine liver)

Q: Which Ki [1] does the source give for `CNc1nc(C)nc2c1ncn2[C@@H]1O[C@H](CO)[C@@H](O)[C@H]1OC` [Compound 27, 2, N^6,2'-O-Trimethyladenosine] here?
A: The Ki was 859 nM.

Q: And the “Serum Creatinine” value ([2]; blood on tenth day)?
A: The value was 0.71 mg/dL.

Q: What about the “Total Protein in Serum” value ([2]; blood on tenth day) of the same compound?
A: Its value is 7.44 g/dL.

Q: What about the “Urea Nitrogen” value ([2]; blood on tenth day) of the same compound?
A: Its value is 31.9 mg/dL.

Q: And the “Amount of Protein in Urine” value ([2]; 1st day)?
A: The value was 0 mg/day.

Q: And the “Amount of Protein in Urine” value ([2]; 2nd day)?
A: The value was 29.2 mg/day.

Q: And the “Amount of Protein in Urine” value ([2]; 3rd day)?
A: Its value is 33.8 mg/day.

Q: And the “Amount of Protein in Urine” value ([2]; 4th day)?
A: The value was 122.5 mg/day.

Q: And the “Amount of Protein in Urine” value ([2]; 5th day)?
A: Its value is 399.8 mg/day.

Q: What about the “Amount of Protein in Urine” value ([2]; 6th day) of the same compound?
A: Its value is 443.7 mg/day.

Q: What about the “Amount of Protein in Urine” value ([2]; 7th day) of the same compound?
A: Its value is 558.7 mg/day.

Q: And the “Amount of Protein in Urine” value ([2]; 8th day)?
A: The value was 595.6 mg/day.

Q: And the “Amount of Protein in Urine” value ([2]; 9th day)?
A: Its value is 593.5 mg/day.

Q: And the “Amount of Protein in Urine” value ([2]; 10th day)?
A: Its value is 528.6 mg/day.

Q: And the inhibition at 100 µM [3, 5]?
A: The inhibition at 100 µM was 88%.

Q: What about the inhibition at 10 µM [3, 5] of the same compound?
A: Its inhibition at 10 µM is 77%.

Q: And the inhibition at 1 µM [3, 5]?
A: Its inhibition at 1 µM is 34%.

Q: And the inhibition at 0.1 µM ([3]; with ADA (0.02 units bovine liver), 1 × 10^-7 M)?
A: Its inhibition at 0.1 µM is 10%.

Q: And the inhibition at 1000 µM ([3]; without ADA, 1 × 10^-3 M)?
A: Its inhibition at 1000 µM is 100%.

Q: What about the inhibition at 100 µM ([3]; without ADA) of the same compound?
A: Its inhibition at 100 µM is 79%.

Q: What about the inhibition at 10 µM ([3]; without ADA) of the same compound?
A: The inhibition at 10 µM was 22%.

Q: What about the inhibition at 1 µM ([3]; without ADA) of the same compound?
A: Its inhibition at 1 µM is 2%.

Q: And the “Paw Weight, Treated” value ([4]; 10 mg/kg intravenous before ischemia, treated paw)?
A: The value was 254.4 ± 6.6 mg.

Q: What about the “Inhibition (of ischemic edema)” value ([4]; 10 mg/kg intravenous, from weight difference between treated and untreated paws) of the same compound?
A: The value was 67.7%.
